PubChem BioAssay AID330 (DTP/NCI, 2004)
Values joined by “and” are separate entries in the source; they are usually repeats but may differ in a detail not shown here. Equal values may be shown once. Toxic doses and inconclusive results are not listed. The calls were made as follows: active = survival T/C of 150% or more; inactive = T/C below 125% in these data.

Test system: P388 leukemia ip, CD2F1 mice, survival T/C
Test: NCI In Vivo Anticancer Drug Screen. Data for tumor model P388 Leukemia (intraperitoneal) in CD2F1 (CDF1) mice
Details: endpoint: median survival time, higher = longer survival
Summary of the method: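 Mice carrying the transplanted tumor received test compound or vehicle. Survival was recorded in each group, and the value is the treated-group measurement divided by that of the vehicle-treated control group.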

[1] = dose: 50.0 mg/kg/injection, schedule: Q01DX005 (ip), vehicle: Klucel (hydroxypropylcellulose) (HPC)
[2] = dose: 100.0 mg/kg/injection, schedule: Q01DX005 (ip), vehicle: Klucel (hydroxypropylcellulose) (HPC)
[3] = dose: 200.0 mg/kg/injection, schedule: Q01DX005 (ip), vehicle: Klucel (hydroxypropylcellulose) (HPC)
[4] = dose: 60.0 mg/kg/injection, schedule: Q01DX005 (ip), vehicle: saline with Tween-80
[5] = dose: 120.0 mg/kg/injection, schedule: Q01DX005 (ip), vehicle: saline with Tween-80
[6] = dose: 12.5 mg/kg/injection, schedule: Q01DX009 (ip), vehicle: saline
[7] = dose: 25.0 mg/kg/injection, schedule: Q01DX009 (ip), vehicle: saline
[8] = dose: 50.0 mg/kg/injection, schedule: Q01DX009 (ip), vehicle: saline with Tween-80
[9] = dose: 100.0 mg/kg/injection, schedule: Q01DX009 (ip), vehicle: saline with Tween-80
[10] = dose: 50.0 mg/kg/injection, schedule: Q01DX005 (ip), vehicle: saline with Tween-80
[11] = dose: 100.0 mg/kg/injection, schedule: Q01DX005 (ip), vehicle: saline with Tween-80
[12] = dose: 200.0 mg/kg/injection, schedule: Q01DX005 (ip), vehicle: saline with Tween-80
[13] = dose: 50.0 mg/kg/injection, schedule: Q01DX005 (ip), vehicle: saline

Measured: T/C

CCCC1C/C=C/C=C/C=C/C=C/C(OC2OC(C)C(O)C(N)C2O)CC(O)C(C(=O)O)C(O)CC(=O)CC(O)CCCC(=O)CC(O)C(CC)C(=O)O1 (configuration not stated)
inactive: dose: 2.5 mg/kg/injection, schedule: Q01DX009 (ip), vehicle: Klucel (hydroxypropylcellulose) (HPC) 94 % of control | dose: 5.0 mg/kg/injection, schedule: Q01DX009 (ip), vehicle: Klucel (hydroxypropylcellulose) (HPC) 106 % of control | dose: 10.0 mg/kg/injection, schedule: Q01DX009 (ip), vehicle: Klucel (hydroxypropylcellulose) (HPC) 92 % of control | dose: 20.0 mg/kg/injection, schedule: Q01DX009 (ip), vehicle: Klucel (hydroxypropylcellulose) (HPC) 87 % of control

O=C(Nc1ncnc2nc(-c3ccccc3)[nH]c12)c1ccccc1
inactive: dose: 60.0 mg/kg/injection, schedule: Q01DX005 (ip), vehicle: Klucel (hydroxypropylcellulose) (HPC) 107 % of control | dose: 120.0 mg/kg/injection, schedule: Q01DX005 (ip), vehicle: Klucel (hydroxypropylcellulose) (HPC) 95 % of control | dose: 240.0 mg/kg/injection, schedule: Q01DX005 (ip), vehicle: Klucel (hydroxypropylcellulose) (HPC) 95 % of control

CC(Br)C(=O)NC(Cc1ccccc1)C(=O)O (configuration not stated)
inactive: dose: 100.0 mg/kg/injection, schedule: Q01DX009 (ip), vehicle: saline 99 % of control | dose: 200.0 mg/kg/injection, schedule: Q01DX009 (ip), vehicle: saline 103 % of control | dose: 400.0 mg/kg/injection, schedule: Q01DX009 (ip), vehicle: saline 89 % of control

Clc1cccc(NN=Nc2ccccc2)c1
inactive: dose: 50.0 mg/kg/injection, schedule: Q01DX009 (ip), vehicle: Klucel (hydroxypropylcellulose) (HPC) 104 % of control | dose: 100.0 mg/kg/injection, schedule: Q01DX009 (ip), vehicle: Klucel (hydroxypropylcellulose) (HPC) 96 % of control | dose: 200.0 mg/kg/injection, schedule: Q01DX009 (ip), vehicle: Klucel (hydroxypropylcellulose) (HPC) 103 % of control

COc1cc2c(cc1OC)CC(=O)OC2
inactive: [1] 105 % of control | [2] 102 % of control | [3] 103 % of control

CNC(=O)OCc1c(COC(=O)NC)c(-c2ccco2)n2c1CCC2
inactive: dose: 3.75 mg/kg/injection, schedule: Q01DX005 (ip), vehicle: saline 100 % of control | dose: 7.5 mg/kg/injection, schedule: Q01DX005 (ip), vehicle: saline 101 % of control | dose: 15.0 mg/kg/injection, schedule: Q01DX005 (ip), vehicle: saline 120 % of control

O=C(O)Cn1/c(=N\N=C\c2ccccc2)sc2ccccc21
inactive: dose: 100.0 mg/kg/injection, schedule: Q01DX001 (ip), vehicle: saline with Tween-80 101 % of control | dose: 200.0 mg/kg/injection, schedule: Q01DX001 (ip), vehicle: saline with Tween-80 91 % of control | dose: 400.0 mg/kg/injection, schedule: Q01DX001 (ip), vehicle: saline with Tween-80 93 % of control

CC1=C(C)C(=O)OC(C(C)(O)C2(O)CCC3(O)C4CC(Cl)C5(O)C(O)C=CC(=O)C5(C)C4CCC32C)C1 (configuration not stated)
inactive: dose: 10.0 mg/kg/injection, schedule: Q01DX005 (ip), vehicle: saline + alcohol 106 % of control | dose: 20.0 mg/kg/injection, schedule: Q01DX005 (ip), vehicle: saline + alcohol 108 % of control | dose: 25.0 mg/kg/injection, schedule: Q01DX005 (ip), vehicle: saline + alcohol 104 % of control | dose: 40.0 mg/kg/injection, schedule: Q01DX005 (ip), vehicle: saline + alcohol 112 % of control | dose: 50.0 mg/kg/injection, schedule: Q01DX005 (ip), vehicle: saline + alcohol 100 % of control and 104 % of control | dose: 80.0 mg/kg/injection, schedule: Q01DX005 (ip), vehicle: saline + alcohol 117 % of control | dose: 100.0 mg/kg/injection, schedule: Q01DX005 (ip), vehicle: saline + alcohol 104 % of control (2×) and 120 % of control | dose: 200.0 mg/kg/injection, schedule: Q01DX005 (ip), vehicle: saline + alcohol 99 % of control and 109 % of control and 111 % of control

CSc1nc(-c2ccccc2)c(C(=O)NC(C)CN2CCCCC2)s1 (configuration not stated)
inactive: [4] 95 % of control | [5] 100 % of control

Cc1cc2[nH]c3c(C#N)c(O)c(C)c(=O)n3c2cc1C
inactive: [4] 100 % of control | [5] 100 % of control | dose: 240.0 mg/kg/injection, schedule: Q01DX005 (ip), vehicle: saline with Tween-80 100 % of control

C=CC(C)(C)[N+](C)(C)C
inactive: [6] 99 % of control | [7] 102 % of control

NNS(=O)(=O)c1ccccc1
inactive: [8] 103 % of control | [9] 103 % of control

CN(C)CC(=O)Nc1ccc2c(c1)C(=O)c1ccc(NC(=O)CN(C)C)cc1C2=O
inactive: [1] 101 % of control | [2] 97 % of control | [3] 99 % of control

CC1=CC(=O)OC12CCCC(C)(C)C2 (configuration not stated)
inactive: [10] 106 % of control | [11] 104 % of control | [12] 106 % of control

CC(ON)C(=O)O (configuration not stated)
inactive: dose: 6.25 mg/kg/injection, schedule: Q01DX005 (ip), vehicle: saline 96 % of control | dose: 12.5 mg/kg/injection, schedule: Q01DX005 (ip), vehicle: saline 102 % of control | dose: 25.0 mg/kg/injection, schedule: Q01DX005 (ip), vehicle: saline 102 % of control | [13] 99 % of control

Nc1nnc(CCC(=O)Nc2cccc(C(F)(F)F)c2)n1N
inactive: [10] 107 % of control | [11] 105 % of control | [12] 90 % of control

C[C@]12CCC(=O)C=C1CC[C@H]1[C@@H]3CC[C@](O)(C(=O)CF)[C@@]3(C)C[C@H](O)[C@@]12F
inactive: dose: 3.12 mg/kg/injection, schedule: Q01DX009 (ip), vehicle: saline 105 % of control | dose: 6.25 mg/kg/injection, schedule: Q01DX009 (ip), vehicle: saline 102 % of control | [6] 118 % of control | [7] 90 % of control

Nc1nc2c(c(=O)[nH]1)CN(CCCN1CCN(CCCN3CNc4nc(N)[nH]c(=O)c4C3)CC1)CN2
inactive: [1] 94 % of control | [2] 99 % of control | [3] 91 % of control

CN1CCC/C1=C\C(=O)c1ccncc1
inactive: [13] 96 % of control | dose: 100.0 mg/kg/injection, schedule: Q01DX005 (ip), vehicle: saline 112 % of control | dose: 200.0 mg/kg/injection, schedule: Q01DX005 (ip), vehicle: saline 124 % of control

CC(=O)Nc1ccc(C(c2c(O)cc(C)[nH]c2=O)c2c(O)cc(C)[nH]c2=O)cc1
inactive: [8] 104 % of control | [9] 112 % of control | dose: 200.0 mg/kg/injection, schedule: Q01DX009 (ip), vehicle: saline with Tween-80 112 % of control

Cc1nc(-c2ccccc2)nc2c1nc(Cc1ccc(Cl)cc1)n2Nc1ccccc1
inactive: [1] 95 % of control | [2] 91 % of control | [3] 88 % of control

CC(c1ccccc1)c1cc(C(C)(C)C)cc(C(C)(C)C)c1O (configuration not stated)
inactive: dose: 50.0 mg/kg/injection, schedule: Q01DX005 (ip), vehicle: distilled water + alcohol 96 % of control | dose: 100.0 mg/kg/injection, schedule: Q01DX005 (ip), vehicle: distilled water + alcohol 100 % of control | dose: 200.0 mg/kg/injection, schedule: Q01DX005 (ip), vehicle: distilled water + alcohol 99 % of control

CC(C)=CCC1=CC(=O)C(CC=C(C)C)=CC1=O
inactive: dose: 3.12 mg/kg/injection, schedule: Q01DX009 (ip), vehicle: saline with Tween-80 105 % of control | dose: 6.25 mg/kg/injection, schedule: Q01DX009 (ip), vehicle: saline with Tween-80 118 % of control | dose: 12.5 mg/kg/injection, schedule: Q01DX009 (ip), vehicle: saline with Tween-80 100 % of control | dose: 25.0 mg/kg/injection, schedule: Q01DX009 (ip), vehicle: saline with Tween-80 90 % of control and 96 % of control

CN1C2=CC=CC=CC2=[N+](C)C1C(=C=[N-])C#N (configuration not stated)
inactive: dose: 15.0 mg/kg/injection, schedule: Q01DX005 (ip), vehicle: saline with Tween-80 104 % of control | dose: 30.0 mg/kg/injection, schedule: Q01DX005 (ip), vehicle: saline with Tween-80 107 % of control | [4] 107 % of control and 115 % of control

Cc1cc(-c2ccc(Oc3ccc(Br)cc3)cc2)n[nH]c1=O
inactive: [1] 99 % of control | [2] 104 % of control | [3] 96 % of control

CCCCCNc1ncnc2[nH]ncc12
inactive: [10] 96 % of control | [11] 102 % of control

N#CC(=O)c1ccccc1
inactive: dose: 3.12 mg/kg/injection, schedule: Q04DX003 (ip), vehicle: saline with Tween-80 101 % of control | dose: 6.25 mg/kg/injection, schedule: Q04DX003 (ip), vehicle: saline with Tween-80 100 % of control | dose: 12.5 mg/kg/injection, schedule: Q04DX003 (ip), vehicle: saline with Tween-80 103 % of control and 105 % of control | dose: 400.0 mg/kg/injection, schedule: Q04DX003 (ip), vehicle: saline with Tween-80 101 % of control
